These results are taken from patent publication US20070082930A1, “Pharmaceutical composition comprising a p2x7 receptor antagonist and a nonsteroidal anti-inflammatory drug” (ASTRAZENECA AB, priority 2003, published 2007).

This assay has as its system streptococcal cell wall-induced arthritis. As to the kind of experiment: Rat streptococcal cell wall (SCW)-induced arthritis: ankle swelling and von Frey mechanical threshold. The format is in vivo. The conditions noted are these: oral bid, P2X7 antagonist 1 30 mg/kg. The source says: Assessment of Anti-Inflammatory Activity of the COX-2 Inhibitor, Celecoxib/P2X7 Antagonist Combinations in Rat Streptococcal Cell Wall-Induced Arthritis.^1 1. Experimental procedure based on that described by Carlson R P, Jacobsen P B, ‘Comparison of adjuvant and streptococcal cell wall-induced arthritis in the rat’in Morgan D W, Marshall L A, editors; In Vivo Models of Inflammation. Basel: Birkhauser Verlag; 1999.
Streptococcal cell wall (SCW)-induced arthritis was induced in the left ankle of female Lewis rats. Animals were sensitised by intra-articular injection of 5 μg (in 20 μL) SCW (Lee Laboratories) into the left ankle. Ankle swelling was assessed 3 days after injection and non-responders (animals with no apparent ankle swelling) were rejected. Responding animals were randomly allocated to the test groups.
Arthritis was induced 21 days after sensitisation by intravenous (iv) injection of SCW (100 μg in 500 μL saline). Animals were monitored and assessed on a daily basis through to term-ination 6 days after induction. The rats were housed on sawdust and provided with food and water ad libitum.
In this example the P2X7 antagonist 1 was orally dosed at 30 mg/kg (4 mL/kg, bid). The compound was dosed as a suspension in 1% (w/v) methylcellulose in deionised water and was freshly prepared on a daily basis. Dosing commenced 1 day prior to induction of arthriis and continued on a daily basis through to termination on day 6 post-induction. Celecoxib (3 mg/kg) was dosed orally under the same regime as for P2X7 antagonist 1, administration of celecoxib occurring immediately after administration of P2X7 antagonist 1.
Ankle diameters were measured with vernier callipers on a daily basis from day −1. Mechanical thresholds were assessed using von Frey filaments on days −1, 1, 3 and 5. The filaments were applied in increasing weights to the ankle region on the footpad of both feet. The first filament to induce a withdrawal response was considered to be the threshold.
Effects on ankle swelling and mechanical threshold were calculated on an area under the curve (AUC) basis, as the sum of the differences from individual day −1 values. The size. and direction of the interaction was calculated and data analysis performed by ANOVA followed by Dunnett's test on the AUC data (SAS version 8.01).
The anti-inflammatory activity of the COX-2 inhibitor, rofecoxib in combination with a P2X7 antagonist was assesesd using the protocol described in Example 3A. The P2X7 antagonist 1 was dosed orally at 30 mg/kg (4 mL/kg, bid) as a suspension in 1% (w/v) methylcellulose in deionised water, together with rofecoxib (Merck Sharp & Dohme Limited) (1 mg/kg) in a single formulation. Dosing commenced 1 day prior to induction of arthritis and continued on a daily baisis through to termination on day 6 post-induction.
The anti-inflammatory activity of the COX-2 inhibitor, valdecoxib in combination with a P2X7 antagonist was assesesd using the protocol described in Example 3A. The P2X7 antagonist 1 was orally dosed at 30 mg/kg (4 mL/kg, bid) as a suspension in 1% (w/v) methylcellulose in deionised water, together with valdecoxib (Pfizer) (1 mg/kg) in a single formulation. Dosing commenced 1 day prior to induction of arthritis and continued on a daily baisis through to termination on day 6 post-induction.

[1] abbreviates: Example 3A, female Lewis rats, day -1 to day 6 post-induction, celecoxib 3 mg/kg, given one immediately after the other.
The mark [2] stands for this setting: Example 3B, day -1 to day 6, rofecoxib 1 mg/kg, single formulation.
[3] abbreviates: Example 3C, day -1 to day 6, valdecoxib 1 mg/kg, single formulation.

For the compound `Cc1ccc(-c2cc(C(F)(F)F)nn2-c2ccc(S(N)(=O)=O)cc2)cc1` [Celecoxib, 4-[5-(4-methylphenyl)-3-(trifluoromethyl)-1H-pyrazol-1-yl]benzenesulfonamide], under setting [1], the “% reduction of AUC (compared to arthritic vehicle control) Ankle swelling” value is 63.0 ± 3.9 % and the “% reduction of AUC (compared to arthritic vehicle control) Von Frey threshold” value is recorded as 43.2 ± 15.9 %.

As for `Cc1ccc(C(=O)N2CC3CNCC(C2)O3)cc1NC(=O)CC12CC3CC(CC(C3)C1)C2.Cl` [P2X7 antagonist 1, N-[2-Methyl-5-(9-oxa-3,7-diazabicyclo[3.3.1]non-3-ylcarbonyl)phenyl]-tricyclo[3.3.1.1^3,7]decane-1-acetamide, hydrochloride], the “% reduction of AUC (compared to arthritic vehicle control) Ankle swelling” value runs as follows: under setting [1], 28.5 ± 13.5%; under setting [2], 2.6 ± 11.6%; under setting [3], 2.6 ± 11.6%. The “% reduction of AUC (compared to arthritic vehicle control) Von Frey threshold” value under setting [1] came out at 21.1 ± 10.9%, the “% reduction of AUC (compared to arthritic vehicle control) Von Frey threshold” value under setting [2] is reported as 26.5 ± 11.4% and the “% reduction of AUC (compared to arthritic vehicle control) Von Frey threshold” value under setting [3] worked out at 26.5 ± 11.4%.

For `CS(=O)(=O)c1ccc(C2=C(c3ccccc3)C(=O)OC2)cc1` [Rofecoxib, 4-[4′-(methylsulfonyl)phenyl]-3-phenyl-(5H)-furanone], under setting [2], the “% reduction of AUC (compared to arthritic vehicle control) Ankle swelling” value amounted to 50.6 ± 4.7 % and the “% reduction of AUC (compared to arthritic vehicle control) Von Frey threshold” value turned out to be 29.8 ± 7.8 %.

In the case of `Cc1onc(-c2ccccc2)c1-c1ccc(S(N)(=O)=O)cc1` [Valdecoxib, 4-(5-methyl-3-phenyl-4-isoxazolyl)benzenesulfonamide], under setting [3], the “% reduction of AUC (compared to arthritic vehicle control) Ankle swelling” value amounted to 52.8 ± 3.1 % and the “% reduction of AUC (compared to arthritic vehicle control) Von Frey threshold” value was found to be 37.8 ± 8.6 %.
